Experimental data taken from ChEMBL document CHEMBL1125223, “Synthesis and antibacterial activities of C-21 functionalized derivatives of (9R)-9-amino-9-deoxoerythromycins A and B” (1991).
≈ marks a conversion by molar mass, not a printed value.

Legend:
Type in all cases: functional
[1] = tested on: Acinetobacter calcoaceticus; experiment: Concentration required to inhibit Acinetobacter calcoaceticus CMX669 stain by standard agar dilution method.
Enterococcus faecium = experiment: Concentration required to inhibit Enterococcus faecium ATCC 8043 stain by standard agar dilution method.
Klebsiella aerogenes = experiment: Concentration required to inhibit Enterobacter aerogenes ATCC 13048 stain by standard agar dilution method.
Escherichia coli [2] = experiment: Concentration required to inhibit Escherichia coli DC-2 stain by standard agar dilution method.
Escherichia coli [3] = experiment: Concentration required to inhibit Escherichia coli H 560 stain by standard agar dilution method.
Escherichia coli [4] = experiment: Concentration required to inhibit Escherichia coli JUHL stain by standard agar dilution method.
Escherichia coli [5] = experiment: Concentration required to inhibit Escherichia coli KNK 437 stain by standard agar dilution method.
Escherichia coli [6] = experiment: Concentration required to inhibit Escherichia coli SS stain by standard agar dilution method.
Klebsiella pneumoniae = experiment: Concentration required to inhibit Klebsiella pneumoniae ATCC 8045 stain by standard agar dilution method.
Micrococcus luteus [7] = experiment: Concentration required to inhibit Micrococcus luteus ATCC 4698 stain by standard agar dilution method.
Micrococcus luteus [8] = experiment: Concentration required to inhibit Micrococcus luteus ATCC 9341 stain by standard agar dilution method.
Burkholderia cepacia = experiment: Concentration required to inhibit Pseudomonas cepacia 2961 stain by standard agar dilution method.
Pseudomonas aeruginosa [9] = experiment: Concentration required to inhibit Pseudomonas aeruginosa K799/61 stain by standard agar dilution method.
Pseudomonas aeruginosa [10] = experiment: Concentration required to inhibit Pseudomonas aeruginosa K799/WT stain by standard agar dilution method.
[11] = tested on: Staphylococcus epidermidis; experiment: Concentration required to inhibit Staphylococcus epidermis 3519 stain by standard agar dilution method.
Staphylococcus aureus [12] = experiment: Concentration required to inhibit 45 stain Staphylococcus aureus 45 by standard agar dilution method.
Staphylococcus aureus [13] = experiment: Concentration required to inhibit CMX553 Staphylococcus aureus CMX553 stain by standard agar dilution method
Staphylococcus aureus [14] = experiment: Concentration required to inhibit Staphylococcus aureus ATCC 6538P stain by standard agar dilution method
Streptococcus agalactiae = experiment: Concentration required to inhibit Streptococcus agalactiae CMX508 stain by standard agar dilution method.
Streptococcus equinus = experiment: Concentration required to inhibit Streptococcus bovis A5169 stain by standard agar dilution method.
Streptococcus pyogenes [15] = experiment: Concentration required to inhibit Streptococcus pyogenes 930CONST stain by standard agar dilution method.
Streptococcus pyogenes [16] = experiment: Concentration required to inhibit Streptococcus pyogenes EES61 stain by standard agar dilution method.
Streptococcus pyogenes [17] = experiment: Concentration required to inhibit Streptococcus pyogenes 2548 INDUC stain by standard agar dilution method.

Row | SMILES | MIC [1] [mg/L] | MIC (Enterococcus faecium) [mg/L] | MIC (Klebsiella aerogenes) [mg/L] | MIC (Escherichia coli [2]) [mg/L] | MIC (Escherichia coli [3]) [mg/L] | MIC (Escherichia coli [4]) [mg/L] | MIC (Escherichia coli [5]) [mg/L] | MIC (Escherichia coli [6]) [mg/L] | MIC (Klebsiella pneumoniae) [mg/L] | MIC (Micrococcus luteus [7]) [mg/L] | MIC (Micrococcus luteus [8]) [mg/L] | MIC (Burkholderia cepacia) [mg/L] | MIC (Pseudomonas aeruginosa [9]) [mg/L] | MIC (Pseudomonas aeruginosa [10]) [mg/L] | MIC [11] [mg/L] | MIC (Staphylococcus aureus [12]) [mg/L] | MIC (Staphylococcus aureus [13]) [mg/L] | MIC (Staphylococcus aureus [14]) [mg/L] | MIC (Streptococcus agalactiae) [mg/L] | MIC (Streptococcus equinus) [mg/L] | further results
1 | CC[C@H]1OC(=O)[C@H](C)[C@@H](O[C@H]2C[C@@](C)(OC)[C@@H](O)[C@H](C)O2)[C@H](C)[C@@H](O[C@@H]2O[C@H](C)C[C@H](N(C)C)[C@H]2O)[C@@](C)(O)C[C@@H](C)[C@@H](N(C)C)[C@H](C)[C@@H](O)[C@]1(C)O | 12.5 (≈ 16.4 µM) | 0.2 (≈ 0.262 µM) | 50 (≈ 65.5 µM) | 25 (≈ 32.8 µM) | 12.5 (≈ 16.4 µM) | 50 (≈ 65.5 µM) | 50 (≈ 65.5 µM) | 0.1 (≈ 0.131 µM) | 25 (≈ 32.8 µM) | 0.1 (≈ 0.131 µM) | 0.1 (≈ 0.131 µM) | > 100 | 12.5 (≈ 16.4 µM) | > 100 | 0.39 (≈ 0.511 µM) | 0.78 (≈ 1.02 µM) | 0.78 (≈ 1.02 µM) | 0.39 (≈ 0.511 µM) | 0.1 (≈ 0.131 µM) | 0.1 (≈ 0.131 µM) | MIC (Streptococcus pyogenes [15]): > 100 mg/L; MIC (Streptococcus pyogenes [16]): 0.05 mg/L (≈ 0.0655 µM); MIC (Streptococcus pyogenes [17]): 100 mg/L (≈ 131 µM)
2 | CC[C@H]1OC(=O)[C@H](C)[C@@H](O[C@H]2C[C@@](C)(OC)[C@@H](O)[C@H](C)O2)[C@H](C)[C@@H](O[C@@H]2O[C@H](C)C[C@H](N(C)C)[C@H]2O)[C@@](C)(O)C[C@@H](C)[C@@H](N(C)C)[C@H](C)[C@@H](O)[C@@]1(O)CO | > 100 | 12.5 (≈ 16 µM) | > 100 | 50 (≈ 64.2 µM) | 25 (≈ 32.1 µM) | > 100 | > 100 | 1.56 (≈ 2 µM) | > 100 | 3.1 (≈ 3.98 µM) | 6.2 (≈ 7.96 µM) | > 100 | 50 (≈ 64.2 µM) | > 100 | 25 (≈ 32.1 µM) | 25 (≈ 32.1 µM) | 25 (≈ 32.1 µM) | 25 (≈ 32.1 µM) | 3.1 (≈ 3.98 µM) | 3.1 (≈ 3.98 µM) | MIC (Streptococcus pyogenes [15]): > 100 mg/L; MIC (Streptococcus pyogenes [16]): 1.56 mg/L (≈ 2 µM); MIC (Streptococcus pyogenes [17]): 100 mg/L (≈ 128 µM)
3 | CC[C@H]1OC(=O)[C@H](C)[C@@H](O[C@H]2C[C@@](C)(OC)[C@@H](O)[C@H](C)O2)[C@H](C)[C@@H](O[C@H]2O[C@H](C)C[C@H](N(C)C)[C@H]2O)[C@@](C)(O)C[C@@H](C)[C@@H](N(C)C)[C@H](C)[C@@H](O)[C@@]12CO2 | 12.5 (≈ 16.4 µM) | 0.02 (≈ 0.0263 µM) | > 100 | 50 (≈ 65.7 µM) | 25 (≈ 32.9 µM) | 100 (≈ 131 µM) | 100 (≈ 131 µM) | 0.39 (≈ 0.512 µM) | 100 (≈ 131 µM) | 0.1 (≈ 0.131 µM) | 0.1 (≈ 0.131 µM) | > 100 | 12.5 (≈ 16.4 µM) | > 100 | 0.39 (≈ 0.512 µM) | 0.78 (≈ 1.02 µM) | 0.78 (≈ 1.02 µM) | 0.78 (≈ 1.02 µM) | 0.05 (≈ 0.0657 µM) | 0.02 (≈ 0.0263 µM) | MIC (Streptococcus pyogenes [15]): > 100 mg/L; MIC (Streptococcus pyogenes [16]): 0.05 mg/L (≈ 0.0657 µM); MIC (Streptococcus pyogenes [17]): 6.2 mg/L (≈ 8.15 µM)
4 | CC[C@H]1OC(=O)[C@H](C)[C@@H](O[C@H]2C[C@@](C)(OC)[C@@H](O)[C@H](C)O2)[C@H](C)[C@@H](O[C@@H]2O[C@H](C)C[C@H](N(C)C)[C@H]2O)[C@@](C)(O)C[C@@H](C)[C@@H](N(C)C)[C@H](C)[C@@H](O)[C@H]1CO | 3.1 (≈ 4.06 µM) | 1.56 (≈ 2.04 µM) | 100 (≈ 131 µM) | 50 (≈ 65.5 µM) | 25 (≈ 32.8 µM) | > 100 | 100 (≈ 131 µM) | 0.39 (≈ 0.511 µM) | 50 (≈ 65.5 µM) | 0.78 (≈ 1.02 µM) | 0.78 (≈ 1.02 µM) | 100 (≈ 131 µM) | 1.56 (≈ 2.04 µM) | 50 (≈ 65.5 µM) | 6.2 (≈ 8.13 µM) | 6.2 (≈ 8.13 µM) | 6.2 (≈ 8.13 µM) | 6.2 (≈ 8.13 µM) | 0.78 (≈ 1.02 µM) | 0.78 (≈ 1.02 µM) | MIC (Streptococcus pyogenes [15]): > 100 mg/L; MIC (Streptococcus pyogenes [16]): 0.39 mg/L (≈ 0.511 µM); MIC (Streptococcus pyogenes [17]): 50 mg/L (≈ 65.5 µM)
